In the kinase profiling compilation of Christmann-Franck et al. (2016):
Values joined by “and” are separate entries in the source; they are usually repeats but may differ in a detail not shown here. Equal values may be shown once.

What was measured:
IGF1R (human) = IGF1R (human) (UniProt P08069)
PIM1 (human) = PIM1 (human) (UniProt P11309)
EPHB3 (human) = EPHB3 (human) (UniProt P54753)
PDPK1 (human) = PDPK1 (human) (UniProt O15530)
PRKACA (human) = PRKACA (human) (UniProt P17612)
TBK1 (human) = TBK1 (human) (UniProt Q9UHD2)
FLT1 (human) = FLT1 (human) (UniProt P17948)
SYK (human) = SYK (human) (UniProt P43405)
MAPK8 (human) = MAPK8 (human) (UniProt P45983)
DYRK2 (human) = DYRK2 (human) (UniProt Q92630)
PIM3 (human) = PIM3 (human) (UniProt Q86V86)
MAPK11 (human) = MAPK11 (human) (UniProt Q15759)
BRSK2 (human) = BRSK2 (human) (UniProt Q8IWQ3)
CSNK1D (human) = CSNK1D (human) (UniProt P48730)
RPS6KA5 KD1 KD2 (human) = RPS6KA5 KD1 KD2 (human) (UniProt O75582)
MKNK1 (human) = MKNK1 (human) (UniProt Q9BUB5)
MAPK14 (human) = MAPK14 (human) (UniProt Q16539)
MAPK9 (human) = MAPK9 (human) (UniProt P45984)
NEK2 (human) = NEK2 (human) (UniProt P51955)
PRKAA1 or PRKAA2 (rat) = settings: accession and sequence are those of the human protein
IKBKB (human) = IKBKB (human) (UniProt O14920)
EPHA2 (human) = EPHA2 (human) (UniProt P29317)
PAK7 (human) = PAK7 (human) (UniProt Q9P286)
MELK (human) = MELK (human) (UniProt Q14680)
MAP2K1 (human) = MAP2K1 (human) (UniProt Q02750)
HIPK2 (human) = HIPK2 (human) (UniProt Q9H2X6)
INSRR (human) = INSRR (human) (UniProt P14616)
BTK (human) = BTK (human) (UniProt Q06187)
GSK3B (human) = GSK3B (human) (UniProt P49841)
IKBKE (human) = IKBKE (human) (UniProt Q14164)
MARK3 (human) = MARK3 (human) (UniProt P27448)
PHKG1 (human) = PHKG1 (human) (UniProt Q16816)
MAPK15 (human) = MAPK15 (human) (UniProt Q8TD08)
Sequence of MAPK15 (human) (Q8TD08 whole entry, looked up): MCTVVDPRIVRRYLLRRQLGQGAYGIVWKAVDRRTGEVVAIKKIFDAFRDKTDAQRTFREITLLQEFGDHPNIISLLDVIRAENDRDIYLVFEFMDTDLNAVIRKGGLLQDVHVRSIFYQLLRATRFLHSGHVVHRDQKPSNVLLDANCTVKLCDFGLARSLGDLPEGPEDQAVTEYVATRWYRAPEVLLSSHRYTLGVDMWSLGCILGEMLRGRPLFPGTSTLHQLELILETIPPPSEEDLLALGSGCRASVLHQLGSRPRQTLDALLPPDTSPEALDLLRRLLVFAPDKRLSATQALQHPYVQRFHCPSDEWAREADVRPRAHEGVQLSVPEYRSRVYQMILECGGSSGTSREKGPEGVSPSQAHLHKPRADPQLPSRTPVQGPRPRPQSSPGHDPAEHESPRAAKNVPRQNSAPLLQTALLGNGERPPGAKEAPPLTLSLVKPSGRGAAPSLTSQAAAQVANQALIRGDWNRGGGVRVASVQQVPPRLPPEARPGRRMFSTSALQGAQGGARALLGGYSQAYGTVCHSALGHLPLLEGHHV

Sequence of PDPK1 (human) (O15530 whole entry, looked up): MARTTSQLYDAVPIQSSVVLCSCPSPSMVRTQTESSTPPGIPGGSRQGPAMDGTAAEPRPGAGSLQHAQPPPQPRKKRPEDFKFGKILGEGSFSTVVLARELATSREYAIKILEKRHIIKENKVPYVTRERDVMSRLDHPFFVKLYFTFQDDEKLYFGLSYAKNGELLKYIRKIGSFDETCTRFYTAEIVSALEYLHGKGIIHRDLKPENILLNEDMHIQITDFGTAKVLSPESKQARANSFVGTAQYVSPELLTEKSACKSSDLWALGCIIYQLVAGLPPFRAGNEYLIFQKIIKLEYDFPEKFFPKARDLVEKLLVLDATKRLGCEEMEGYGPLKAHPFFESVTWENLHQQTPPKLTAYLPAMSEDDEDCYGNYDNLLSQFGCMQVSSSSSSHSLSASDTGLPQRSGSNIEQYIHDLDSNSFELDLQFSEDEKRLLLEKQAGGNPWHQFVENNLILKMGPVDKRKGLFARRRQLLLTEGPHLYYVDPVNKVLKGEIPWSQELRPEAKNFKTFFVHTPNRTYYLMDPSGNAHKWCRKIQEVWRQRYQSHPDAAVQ
Sequence of RPS6KA5 KD1 KD2 (human) (O75582 whole entry, looked up): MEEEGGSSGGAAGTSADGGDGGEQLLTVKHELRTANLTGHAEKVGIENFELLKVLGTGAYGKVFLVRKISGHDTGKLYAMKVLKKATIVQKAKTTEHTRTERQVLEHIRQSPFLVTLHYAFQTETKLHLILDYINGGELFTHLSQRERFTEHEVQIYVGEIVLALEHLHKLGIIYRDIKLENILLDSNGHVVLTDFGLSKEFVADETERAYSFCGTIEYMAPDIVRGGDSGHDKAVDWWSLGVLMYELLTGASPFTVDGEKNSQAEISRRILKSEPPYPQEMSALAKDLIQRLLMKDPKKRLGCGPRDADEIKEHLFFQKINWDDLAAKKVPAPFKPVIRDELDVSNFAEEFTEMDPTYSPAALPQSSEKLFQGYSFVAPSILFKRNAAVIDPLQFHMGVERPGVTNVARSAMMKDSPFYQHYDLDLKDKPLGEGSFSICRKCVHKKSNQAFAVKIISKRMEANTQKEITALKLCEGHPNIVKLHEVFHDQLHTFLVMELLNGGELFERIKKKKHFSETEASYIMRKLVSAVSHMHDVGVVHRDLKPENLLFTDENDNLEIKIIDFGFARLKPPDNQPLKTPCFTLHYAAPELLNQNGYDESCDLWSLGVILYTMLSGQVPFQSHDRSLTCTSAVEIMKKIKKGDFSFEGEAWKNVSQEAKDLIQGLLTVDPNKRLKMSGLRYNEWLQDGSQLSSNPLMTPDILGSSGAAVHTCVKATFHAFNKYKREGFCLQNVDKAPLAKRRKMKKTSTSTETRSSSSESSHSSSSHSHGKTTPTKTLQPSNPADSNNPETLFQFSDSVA
Sequence of NEK2 (human) (P51955 whole entry, looked up): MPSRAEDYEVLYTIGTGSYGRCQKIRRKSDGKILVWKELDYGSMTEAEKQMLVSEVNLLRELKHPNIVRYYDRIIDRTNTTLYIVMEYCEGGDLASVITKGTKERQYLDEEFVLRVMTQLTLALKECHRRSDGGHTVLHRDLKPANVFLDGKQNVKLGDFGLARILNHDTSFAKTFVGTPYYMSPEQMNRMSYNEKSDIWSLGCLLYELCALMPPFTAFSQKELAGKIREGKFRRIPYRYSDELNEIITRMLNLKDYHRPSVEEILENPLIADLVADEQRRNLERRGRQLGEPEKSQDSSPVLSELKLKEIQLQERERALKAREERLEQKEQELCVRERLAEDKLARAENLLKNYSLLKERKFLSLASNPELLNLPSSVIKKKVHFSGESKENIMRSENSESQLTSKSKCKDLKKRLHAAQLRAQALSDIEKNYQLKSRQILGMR
Sequence of TBK1 (human) (Q9UHD2 whole entry, looked up): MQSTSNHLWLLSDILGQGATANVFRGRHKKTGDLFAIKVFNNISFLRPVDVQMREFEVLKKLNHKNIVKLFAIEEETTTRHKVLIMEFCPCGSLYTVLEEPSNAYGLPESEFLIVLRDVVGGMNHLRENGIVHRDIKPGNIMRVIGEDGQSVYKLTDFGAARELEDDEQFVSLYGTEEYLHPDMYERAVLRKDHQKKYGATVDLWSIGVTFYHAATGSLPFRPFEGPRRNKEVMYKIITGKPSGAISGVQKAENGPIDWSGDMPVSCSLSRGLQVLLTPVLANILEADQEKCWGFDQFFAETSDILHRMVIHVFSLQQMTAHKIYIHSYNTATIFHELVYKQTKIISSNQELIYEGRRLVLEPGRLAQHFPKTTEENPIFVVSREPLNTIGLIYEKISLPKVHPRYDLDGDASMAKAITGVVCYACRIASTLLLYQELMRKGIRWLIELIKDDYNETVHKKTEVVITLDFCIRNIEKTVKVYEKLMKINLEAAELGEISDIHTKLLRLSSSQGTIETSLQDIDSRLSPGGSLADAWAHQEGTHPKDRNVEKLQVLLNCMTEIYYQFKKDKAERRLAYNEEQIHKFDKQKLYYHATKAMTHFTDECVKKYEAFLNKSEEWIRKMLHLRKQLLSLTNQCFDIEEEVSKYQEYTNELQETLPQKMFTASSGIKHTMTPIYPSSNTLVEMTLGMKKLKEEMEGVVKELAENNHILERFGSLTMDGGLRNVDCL
Sequence of MAPK9 (human) (P45984 whole entry, looked up): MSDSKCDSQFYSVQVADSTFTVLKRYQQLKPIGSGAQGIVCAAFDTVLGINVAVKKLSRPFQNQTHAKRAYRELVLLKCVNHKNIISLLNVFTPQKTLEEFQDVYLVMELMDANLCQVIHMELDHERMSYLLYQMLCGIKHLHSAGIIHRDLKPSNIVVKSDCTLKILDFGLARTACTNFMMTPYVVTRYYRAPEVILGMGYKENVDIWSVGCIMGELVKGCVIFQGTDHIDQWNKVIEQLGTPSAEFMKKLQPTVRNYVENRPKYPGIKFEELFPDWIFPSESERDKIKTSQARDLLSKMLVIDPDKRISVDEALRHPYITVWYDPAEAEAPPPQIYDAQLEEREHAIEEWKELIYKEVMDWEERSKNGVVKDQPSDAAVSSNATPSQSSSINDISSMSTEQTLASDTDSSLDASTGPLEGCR
Sequence of MKNK1 (human) (Q9BUB5 whole entry, looked up): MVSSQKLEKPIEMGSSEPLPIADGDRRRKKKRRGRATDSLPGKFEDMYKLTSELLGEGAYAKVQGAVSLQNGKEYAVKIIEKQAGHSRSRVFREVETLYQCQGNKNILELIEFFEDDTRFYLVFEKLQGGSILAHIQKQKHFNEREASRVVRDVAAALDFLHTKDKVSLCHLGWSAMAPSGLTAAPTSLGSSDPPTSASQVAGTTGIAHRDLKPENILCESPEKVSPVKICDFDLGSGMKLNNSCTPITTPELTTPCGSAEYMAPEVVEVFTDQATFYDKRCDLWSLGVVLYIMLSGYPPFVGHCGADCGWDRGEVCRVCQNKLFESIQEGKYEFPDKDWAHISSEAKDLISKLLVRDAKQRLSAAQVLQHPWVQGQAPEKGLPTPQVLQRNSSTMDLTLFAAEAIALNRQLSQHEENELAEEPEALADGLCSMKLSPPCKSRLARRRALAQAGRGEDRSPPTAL
Sequence of MARK3 (human) (P27448 whole entry, looked up): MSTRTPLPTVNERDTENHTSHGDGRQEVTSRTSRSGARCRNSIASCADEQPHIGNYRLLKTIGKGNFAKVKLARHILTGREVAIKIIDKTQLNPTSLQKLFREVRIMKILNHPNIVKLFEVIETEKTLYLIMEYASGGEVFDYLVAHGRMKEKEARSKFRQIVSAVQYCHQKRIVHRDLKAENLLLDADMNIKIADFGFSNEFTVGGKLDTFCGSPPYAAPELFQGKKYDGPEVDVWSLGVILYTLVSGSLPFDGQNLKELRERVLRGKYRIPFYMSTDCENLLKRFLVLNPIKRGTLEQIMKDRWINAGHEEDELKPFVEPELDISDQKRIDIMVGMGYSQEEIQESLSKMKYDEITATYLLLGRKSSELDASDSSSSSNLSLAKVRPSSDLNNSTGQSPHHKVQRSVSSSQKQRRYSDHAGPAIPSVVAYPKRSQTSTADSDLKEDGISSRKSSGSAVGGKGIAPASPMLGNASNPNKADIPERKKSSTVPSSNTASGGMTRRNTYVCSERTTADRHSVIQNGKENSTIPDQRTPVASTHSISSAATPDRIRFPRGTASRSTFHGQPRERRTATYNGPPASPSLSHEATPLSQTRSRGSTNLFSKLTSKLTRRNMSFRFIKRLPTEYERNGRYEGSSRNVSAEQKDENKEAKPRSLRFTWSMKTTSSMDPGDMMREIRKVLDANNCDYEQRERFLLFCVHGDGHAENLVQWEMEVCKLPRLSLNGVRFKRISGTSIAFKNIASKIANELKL

COc1ccc(-c2ccc3c(N4CCOCC4)nc(N4C[C@@H](C)O[C@@H](C)C4)nc3n2)cc1CO
per cent of control (IGF1R (human); compound 1.0 µM): 117%
per cent of control (IGF1R (human); compound 10.0 µM): 89%
per cent of control (PIM1 (human); compound 1.0 µM): 89%
per cent of control (PIM1 (human); compound 10.0 µM): 98%
per cent of control (EPHB3 (human); compound 1.0 µM): 100%
per cent of control (EPHB3 (human); compound 10.0 µM): 78%
per cent of control (PDPK1 (human); compound 1.0 µM): 80% and 89%
per cent of control (PDPK1 (human); compound 10.0 µM): 91% and 101%
per cent of control (PRKACA (human); compound 1.0 µM): 115%
per cent of control (PRKACA (human); compound 10.0 µM): 85%
per cent of control (TBK1 (human); compound 1.0 µM): 97%
per cent of control (TBK1 (human); compound 10.0 µM): 89%
per cent of control (FLT1 (human); compound 1.0 µM): 92%
per cent of control (FLT1 (human); compound 10.0 µM): 92%
per cent of control (SYK (human); compound 1.0 µM): 88%
per cent of control (SYK (human); compound 10.0 µM): 83%
per cent of control (MAPK8 (human); compound 1.0 µM): 80%
per cent of control (MAPK8 (human); compound 10.0 µM): 93%
per cent of control (DYRK2 (human); compound 1.0 µM): 92%
per cent of control (DYRK2 (human); compound 10.0 µM): 96%
per cent of control (PIM3 (human); compound 1.0 µM): 114%
per cent of control (PIM3 (human); compound 10.0 µM): 75%
per cent of control (MAPK11 (human); compound 1.0 µM): 106%
per cent of control (MAPK11 (human); compound 10.0 µM): 83%
per cent of control (BRSK2 (human); compound 1.0 µM): 90%
per cent of control (BRSK2 (human); compound 10.0 µM): 72%
per cent of control (CSNK1D (human); compound 1.0 µM): 112%
per cent of control (CSNK1D (human); compound 10.0 µM): 109%
per cent of control (RPS6KA5 KD1 KD2 (human); compound 1.0 µM): 101%
per cent of control (RPS6KA5 KD1 KD2 (human); compound 10.0 µM): 117%
per cent of control (MKNK1 (human); compound 1.0 µM): 111%
per cent of control (MKNK1 (human); compound 10.0 µM): 75%
per cent of control (MAPK14 (human); compound 1.0 µM): 101%
per cent of control (MAPK14 (human); compound 10.0 µM): 96%
per cent of control (MAPK9 (human); compound 1.0 µM): 101%
per cent of control (MAPK9 (human); compound 10.0 µM): 103%
per cent of control (NEK2 (human); compound 1.0 µM): 92%
per cent of control (NEK2 (human); compound 10.0 µM): 86%
per cent of control (PRKAA1 or PRKAA2 (rat); compound 1.0 µM): 97%
per cent of control (PRKAA1 or PRKAA2 (rat); compound 10.0 µM): 106%
per cent of control (IKBKB (human); compound 1.0 µM): 104%
per cent of control (IKBKB (human); compound 10.0 µM): 89%
per cent of control (EPHA2 (human); compound 1.0 µM): 108%
per cent of control (EPHA2 (human); compound 10.0 µM): 96%
per cent of control (PAK7 (human); compound 1.0 µM): 101%
per cent of control (PAK7 (human); compound 10.0 µM): 81%
per cent of control (MELK (human); compound 1.0 µM): 91%
per cent of control (MELK (human); compound 10.0 µM): 72%
per cent of control (MAP2K1 (human); compound 1.0 µM): 96%
per cent of control (MAP2K1 (human); compound 10.0 µM): 43%
per cent of control (HIPK2 (human); compound 1.0 µM): 89%
per cent of control (HIPK2 (human); compound 10.0 µM): 89%
per cent of control (INSRR (human); compound 1.0 µM): 105%
per cent of control (INSRR (human); compound 10.0 µM): 71%
per cent of control (BTK (human); compound 1.0 µM): 85%
per cent of control (BTK (human); compound 10.0 µM): 81%
per cent of control (GSK3B (human); compound 1.0 µM): 95%
per cent of control (GSK3B (human); compound 10.0 µM): 91%
per cent of control (IKBKE (human); compound 1.0 µM): 99%
per cent of control (IKBKE (human); compound 10.0 µM): 100%
per cent of control (MARK3 (human); compound 1.0 µM): 93%
per cent of control (MARK3 (human); compound 10.0 µM): 93%
per cent of control (PHKG1 (human); compound 1.0 µM): 89%
per cent of control (PHKG1 (human); compound 10.0 µM): 116%
per cent of control (MAPK15 (human); compound 1.0 µM): 88%
per cent of control (MAPK15 (human); compound 10.0 µM): 92%
